# “Also recorded” adds a separate entry of the source. Structures can show the parent of a compound that is named as a salt.
# Assays:
# Type in all cases: in vivo, human
# [1] = system: subjects with myelofibrosis (palpable splenomegaly); test: Palpable spleen size / splenomegaly response (IWG-MRT criteria); set-up: Clinical improvement (IWG response), subjects by 20 weeks: reference not given here; settings: for Subjects with =50% decrease in palpable spleen size persistent for at least 8 weeks (Clinical Improvement, CI) / Subjects with a minimum 25% decrease in palpable spleen size: by cycle 6; for Subjects with a minimum 25% decrease in palpable spleen size: intent-to-treat; for Subjects with spleen response (CI): by cycle 12
# Experimental: (§1) Responses were measured every 4 weeks per International Working Group for MPN Research and Treatment (IWG-MRT) criteria (Tefferi A et al., Blood 108:1497-1503, 2006). Assessment of bone marrow histology was performed at baseline and every 24 weeks of therapy. Changes in JAK2V617F allele burden in the granulocyte fraction of peripheral blood were measured as previously described (Kittur J et al., Cancer 109:2279-2284, 2007); the assessments were at baseline and every 4 weeks during the first 6 cycles, and every 6th cycle of therapy in the extension study.
# [2] = system: WBC count; test: Leukocytosis: WBC count; settings: for Subjects who achieved a normal WBC count: following 6 cycles; for Subjects with normal WBC counts: following 12 cycles
# [3] = system: platelet count; test: Thrombocytosis: platelet count; settings: for Subjects who achieved a normal platelet count: after 6 cycles; for Subjects with a normal platelet count: following 12 cycles
# [4] = system: JAK2V617F allele burden; test: JAK2V617F allele burden in the granulocyte fraction of peripheral blood
# Experimental: as §1
# [5] = system: IL-6, IL-8, IL-2 and TNF-a; test: Cytokine levels, multiplexed sandwich ELISAs
# Experimental: Samples for cytokine measurement were collected at baseline and every 4 weeks thereafter. Cytokine levels were measured using multiplexed sandwich ELISAs (Millipore, St. Charles, Mo.).
# [6] = 680 mg/day starting dose (N=37)
# [7] = MTD cohort, subjects who completed 6 cycles
smiles,measurement,setting,value
"Cc1cnc(Nc2ccc(OCCN3CCCC3)cc2)nc1Nc1cccc(S(=O)(=O)NC(C)(C)C)c1 [TG101348, N-tert-butyl-3-[(5-methyl-2-{[4-(2-pyrrolidin-1-ylethoxy)phenyl]amino}pyrimidin-4-yl)amino]benzenesulfonamide dihydrochloride monohydrate]","Clinical improvement (IWG response), subjects by 12 weeks",[1]; [6],56%
same,"Clinical improvement (IWG response), subjects by 20 weeks",[1]; [6],100%
same,Subjects who achieved clinical improvement based on reduction of palpable splenomegaly (IWG response),[1]; [6],49%
same,Complete response of splenomegaly,[1]; Example 2 conclusions,~30%
same,Proportion achieving =50% reduction in palpable splenomegaly,[1]; Example 2 conclusions,two-thirds
same,Mean (standard deviation) duration of spleen response per IWG-MRT criteria,[1]; MTD cohort,288 (±76) days
same,Median time to CI,"[1]; MTD cohort, range 41-170",113 days
same,Subjects in whom the spleen became non palpable,[1]; [7],31%
same,Subjects with =25% reduction in palpable spleen size,[1]; [7],90%
same,Subjects with =50% reduction in palpable spleen size,[1]; [7],66%
same,Subjects with JAK2V617F-negative MF who achieved CI,[1]; Three of 4 subjects who completed 6 cycles,75%
same,Median time to CI,"[1]; across doses, range 41 to 171",141 days
same,Patients with reduction in palpable spleen size of at least 50%,"[1]; at 3 months, 33 patients who started at =680 mg and completed at least 3 cycles, 22 patients",67%
same,Patients in whom the spleen became non-palpable,"[1]; at 3 months, 33 patients who started at =680 mg, 9 patients",27%
same,Relapse or disease progression,[1]; at the time of data collection (Example 2),no relapse or disease progression
same,"Subjects with =50% decrease in palpable spleen size persistent for at least 8 weeks (Clinical Improvement, CI)",[1]; MTD cohort,45%
same,Subjects with a minimum 25% decrease in palpable spleen size,[1]; MTD cohort,65%
same,"Subjects with =50% decrease in palpable spleen size persistent for at least 8 weeks (Clinical Improvement, CI)",[1]; overall,39%
same,Subjects with a minimum 25% decrease in palpable spleen size,[1]; overall (36 subjects),61%
same,Subjects with spleen response (CI),[1]; MTD cohort,50%
same,Subjects with spleen response (CI),[1]; overall,48%
same,Lowest starting dose at which CI was observed,[1]; in vivo,240 mg/day
same,Palpable spleen size after treatment,"[1]; one subject with JAK2V617F-positive PMF, started at 680 mg/day, 9 cm before",0 cm
same,Mean (standard deviation) duration of spleen response per IWG-MRT criteria,[1]; overall,315 (±129) days
same,Onset of spleen response,"[1]; rapid, generally seen within",≤ 2 cycles
same,Patients with a normal WBC count at last follow-up visit,"[2]; Example 1, leukocytosis at baseline, started at =680 mg",70%
same,Subjects with normal WBC counts at follow-up visit,"[2]; Example 2, baseline WBC count >11×10^9/L",73%
same,Anti-myeloproliferation activity: resolution of leukocytosis and thrombocytosis,[2]; Example 2 conclusions,virtually all treated subjects experiencing complete resolution of leukocytosis and thrombocytosis
same,Subjects who achieved a normal WBC count,[2]; MTD cohort (13 of 18),72%
same,Subjects who achieved a normal WBC count,[2]; across doses (16 of 28 with baseline leukocytosis),57%
same,Subjects with normal WBC counts,[2]; MTD cohort (10 of 17),59%
same,Subjects with normal WBC counts,[2]; across doses (14 of 25),56%
same,Subjects who achieved a normal platelet count,[3]; MTD cohort (7 with baseline thrombocytosis),100%
same,Subjects who achieved a normal platelet count,[3]; across doses (10 with baseline thrombocytosis),90%
same,Effect on platelet counts in thrombocytosis,[3]; baseline platelet count >450×10^9/L,able to reduce platelet counts
same,Subjects with a normal platelet count,"[3]; MTD cohort, all of 6",6 subjects
same,Subjects with a normal platelet count,[3]; across doses (7 of 8),88%
same,Subjects exhibiting no change in allele burden,"[4]; 12 cycles, 100% allele burden at baseline",2
same,Median JAK2V617F allele burden,"[4]; 23 subjects with baseline >20% (baseline median 60%), after 6 cycles, range 4%-100%",31%
same,Median JAK2V617F allele burden,"[4]; 23 subjects with baseline >20% (baseline median 60%), after 12 cycles, range 7%-100%",32%
same,Patients with =50% reduction in VF allele burden,"[4]; 48 evaluable VF-positive patients (21 patients), last available follow-up",44%
same,Median decrease in granulocyte mutant allele burden,"[4]; 48 evaluable VF-positive patients, last available follow-up",48%
same,Median JAK2V617F allele burden,"[4]; all mutation-positive subjects (baseline median 20%), after 6 cycles, range 0%-100%",17%
same,Median JAK2V617F allele burden,"[4]; all mutation-positive subjects (baseline median 20%), after 12 cycles, range 0%-100%",19%
same,Change in JAK2V617F allele burden versus pre-study baseline,"[4]; all mutation-positive subjects (n=51), after 6 cycles (p=0.04) and 12 cycles (p=0.01)",significant decrease
same,Subjects with =50% decrease in JAK2V617F,"[4]; baseline >20%, 12 cycles, 7 subjects",39%
same,Subjects exhibiting an increase in allele burden,"[4]; baseline >20%, 12 cycles, Three subjects (7%, 18%, and 22%)",17%
same,Median decrease in JAK2V617F allele burden,"[4]; baseline >20%, 18 subjects who completed 12 cycles, range 29% to 82%",50%
same,Subjects exhibiting an increase in JAK2V617F allele burden,"[4]; baseline >20%, after 6 cycles, 4 subjects (18%, 21%, 30%, and 58%)",20%
same,Subjects with =50% decrease in JAK2V617F allele burden,"[4]; baseline >20%, after 6 cycles, 9 subjects",45%
same,Subjects exhibiting a decrease in JAK2V617F allele burden,"[4]; baseline >20%, after 6 cycles, 16 of 20 subjects",80%
same,Median decrease in JAK2V617F allele burden,"[4]; baseline >20%, after 6 cycles, 16 subjects, range 6% to 96%",61%
same,Patients with =50% reduction in VF allele burden,[4]; group who started treatment at =680 mg,48%
same,Change in JAK2V617F allele burden versus pre-study baseline,"[4]; subgroup with baseline allele burden >20% (n=23), after 6 cycles (p=0.002) and 12 cycles (p=0.002), dihydrochloride monohydrate",significant and even more pronounced decrease; also recorded: significant decrease
same,Subjects with decreased JAK2 V617F allele burden,"[4]; subjects with baseline >20% (N=22), FIG. 6",59%
same,Serum EPO and TPO levels relative to baseline,"[5]; after treatment initiation, data not shown",increases in serum EPO and to a lesser extent TPO levels
same,Absolute difference in IL-2 from baseline,"[5]; cycle 6, 1 subject (101-039)",-1827 pg/mL
same,Absolute difference in IL-6 from baseline,"[5]; cycle 6, 1 subject (101-039)",-4719 pg/mL
same,"Effect on levels of pro-inflammatory cytokines (IL-6, IL-2, IL-8, TNF-a)","[5]; relative to baseline during treatment, dihydrochloride monohydrate",no significant changes on cytokine levels; also recorded: minimal effect on serum levels of proinflammatory cytokines; also recorded: no consistent changes
